Reference: patent publication US11707468B2, “Methods of treating pancreatic cancer” (UNIVERSITY OF MARYLAND, BALTIMORE, priority 2014, dated 2023)

Key:
MiaPaCa-2 = assay: MTT cell viability / anti-proliferative assay; type: cell-based, human; settings: for anti-proliferative potency compared with gemcitabine: MiaPaCa-2 cells, MTT assay after a 7-day agent treatment
Protocol: FIG. 6: Inhibition of PDAC cell proliferation: MTT assay after a 7-day agent treatment.
(§1) FIG. 7: Effect of Galeterone, analogs and Gemcitabine on PDAC cells. MTT cell viability assays were conducted on Gem-naïve and Gem-resistant cells.
The present Example presents the in vitro anti-proliferative activities of compounds in three human PDAC cell lines, including, Capan-1, MiaPaCa-2 and S2-013 because of their relative resistant nature (30, 31). The cell lines used were authenticated by short tandem repeat.
(§2) The present Example investigates the potential efficacy of galeterone and three lead ARDAs in inhibiting cell viability of both gemcitabine naïve (Gem-naïve) and gemcitabine/erlotinib resistant human pancreatic cancer cells in vitro. […] Galeterone and its analogs show significant anti-proliferative active against both gemcitabine naïve and gemcitabine resistant PDAC cells.

MiaPaCa-GR [1] = assay: Apoptosis, flow cytometry Annexin V and PI staining; type: cell-based, human; settings: MiaPaCa-GR cells, 24 hours
Protocol: (§3) FIG. 18: Apoptotic induction of Gal and Analogs and Gem-resistant PDAC cells. (FIG. 18A) Galeterone and analogs induce apoptosis in S2-013 cells analyzed by acridine orange ethidium bromide staining. Cells were treated with 2.5 μM. (FIG. 18B) Galeterone and analogs were compared to gemcitabine in inducing apoptosis analyzed by flow cytometry in MiaPaCa-GR cells.
(§4) Cells treated with indicated doses for 24 hours were analyzed by acridine orange ethidium bromide assay and also by FACS analysis using Annexin V and PI staining following manufacturer's protocol. […] Galeterone and analogs induce apoptosis in S2-013 cells analyzed by acridine orange ethidium bromide staining ([…]). Galeterone and analogs were compared to gemcitabine in inducing both early and late apoptosis analyzed by flow cytometry (FIG. 18B).

[2] = test system: Gem-naïve and Gem-resistant PDAC cells; assay: Colony formation assay; type: cell-based, human
Protocol: (§5) S2-013 (FIG. 10A), MiaPaCa-2 (FIG. 10B) and MiaPaCa-GTR (FIG. 10C) show cells seeded at 1000 cells/well and treated with compounds (μM) for 14 days. Media was replaced every 72 hours. Cells were stained with 0.05% crystal violet. Conditioned media from MiaPaCa-2 cells after being treated with indicated compounds was separated on a zymogram gel to analyze the proteolytic activity of MMP9 after treatment (FIG. 10D).
FIG. 11: Inhibition of colony formation in S2-013 cells.
S2-013, MiaPaCa-2 and MiaPaCa-GTR were seeded at 1000 cells/well and treated with compounds (μM) for 14 days. Media was replaced every 72 h. Cells were stained with 0.05% crystal violet (FIG. 10A-C).

S2-013 [3] = assay: Apoptosis, acridine orange ethidium bromide staining; type: cell-based, human; settings: S2-013 metastatic cell line, 2.5 μM, 24 hours
Protocol: as §3, §4

Panc-1 cells = assay: Wound-healing (scratch) migration assay; type: cell-based, human; settings: Panc-1, 5 μM, 12 hours
Protocol: FIG. 12: Panc-1 and S2-013 cells plated in 24-well plate in a monolayer and scratch wound made with a 200 μl pipette tip and treated with indicated compounds at 5 μM for 12 hours.
The present Example investigates whether ARDAs inhibit the migratory and invasive potential of PDAC cells. Decreased invasive potential of PDAC cells was shown through wound-healing and matrigel-coated Boyden chambers assays. Cells grown to a monolayer were used in migration assay after a scratch was made and incubated for 12 hours. […] In contrast, CGP and Gem were not effective. As expected these compounds also exerted strong anti-invasive efficacy against Capan-1 cells. The tested concentrations at time (12 h) of assay, all cells in each treatment group were ≥90% viable.

MMP9 = assay: Zymography of conditioned media from MiaPaCa-2 cells; type: cell-based, human; settings: conditioned media of MiaPaCa-2 cells treated 3 days
Protocol: as §5
Zymography assays were performed by seeding cells in 10 cm plates in phenol-red free media with no fetal bovine serum (FBS) and treated for 3 days. Media from cells were concentrated using amicon ultra filtration columns and normalized protein run on a 10% gelatin gels. Conditioned media from MiaPaCa-2 cells after being treated with indicated compounds was separated on a zymogram gel to analyze the proteolytic activity of MMP9 after treatment (FIG. 10D). […] The ARDAs caused significant depletion of matrix metalloproteinases (MMPs).

S2-013 [4] = assay: MTT cell viability assay; type: cell-based; settings: Homo sapiens, S2-013, single agent
Protocol: as §1, §2

MiaPaCa-GR [5] = assay: MTT cell viability assay; type: cell-based; settings: Homo sapiens, MiaPaCa-GR (gemcitabine resistant), single agent
Protocol: as §1
(§6) Examples below were preformed using a panel of PDAC cells from primary tumors (MiaPaca-2, Panc-1, Capan-1 and HS766T), metastatic lesions (S2-013 and S2VP10) and drug-resistant MiaPaCa-GR (gemcitabine resistant-200 nM) and MiaPaCa-GTR (erlotinib-2 μM/gemcitabine-200 nM) cell lines. The activities of ARDAs and Gemcitabine (Gem) can be evaluated using complementary assays and molecular determinants can also be identified in a panel of human PDAC cells. The mechanism(s) of action of ARDAs alone and in combination with Gem with the primary goal to identify the key mediators for their activities in PDAC cells are disclosed here. […] Initially four cell line (2 Gem-naïve and the two Gem-resistant lines) will be used. Key findings derived from these cell lines can be validated in additional cell lines if necessary. How these agents modulate Mnk1/2-peIF4E and NFκ-B can also be focused on.
(§7) The present Example investigates the potential efficacy of galeterone and three lead ARDAs in inhibiting cell viability of both gemcitabine naïve (Gem-naïve) and gemcitabine/erlotinib resistant human pancreatic cancer cells in vitro. […]

MiaPaCa-GTR = assay: MTT cell viability assay; type: cell-based; settings: Homo sapiens, MiaPaCa-GTR (gemcitabine/erlotinib resistant), single agent
Protocol: as §1, §6, §7

[6] = compared to VN/124-1, reference (1); cited from earlier work
androgen receptor = target: T1, androgen receptor (Homo sapiens, UniProt P10275); settings: compared to VN/124-1, reference (1); cited from earlier work
T1 sequence (P10275 1-920): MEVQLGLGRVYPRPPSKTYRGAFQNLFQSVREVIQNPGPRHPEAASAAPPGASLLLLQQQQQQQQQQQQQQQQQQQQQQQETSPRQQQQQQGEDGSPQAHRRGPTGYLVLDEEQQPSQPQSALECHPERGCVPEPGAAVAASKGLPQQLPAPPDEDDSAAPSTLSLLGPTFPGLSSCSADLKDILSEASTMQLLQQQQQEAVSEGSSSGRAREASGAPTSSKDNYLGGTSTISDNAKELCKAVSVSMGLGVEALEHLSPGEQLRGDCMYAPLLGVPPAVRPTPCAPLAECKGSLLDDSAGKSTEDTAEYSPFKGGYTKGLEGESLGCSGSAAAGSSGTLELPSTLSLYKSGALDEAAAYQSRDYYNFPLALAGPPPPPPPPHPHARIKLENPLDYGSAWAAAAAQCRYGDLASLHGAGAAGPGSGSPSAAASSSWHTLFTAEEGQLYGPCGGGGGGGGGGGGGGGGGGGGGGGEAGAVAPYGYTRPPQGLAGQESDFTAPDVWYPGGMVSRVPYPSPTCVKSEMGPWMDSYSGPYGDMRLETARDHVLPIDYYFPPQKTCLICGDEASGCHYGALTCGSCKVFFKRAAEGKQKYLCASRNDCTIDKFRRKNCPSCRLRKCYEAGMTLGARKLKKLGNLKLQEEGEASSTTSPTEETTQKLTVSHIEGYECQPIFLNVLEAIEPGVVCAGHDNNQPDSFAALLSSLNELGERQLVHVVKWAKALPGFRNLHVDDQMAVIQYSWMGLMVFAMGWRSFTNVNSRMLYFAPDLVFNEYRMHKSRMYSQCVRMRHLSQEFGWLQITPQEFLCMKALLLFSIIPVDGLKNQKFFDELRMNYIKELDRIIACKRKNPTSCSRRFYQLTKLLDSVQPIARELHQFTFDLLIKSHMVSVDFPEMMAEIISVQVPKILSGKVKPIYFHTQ

[7] = test system: patients with advanced-stage pancreatic cancer; settings: in combination with gemcitabine, Moore et al. 2007; cited from earlier work
[8] = 1000 cells/well, treated 14 days, alone or in combination with gemcitabine

Structure (SMILES): C[C@]12CC[C@H](n3ccnc3)CC1=CC[C@@H]1[C@@H]2CC[C@]2(C)C(n3cnc4ccccc43)=CC[C@@H]12 [VNPP433-3β]
- anti-proliferative potency compared with gemcitabine (MiaPaCa-2): almost as potent as gemcitabine

Structure (SMILES): C[C@]12CC[C@H](O)CC1=CC[C@@H]1[C@@H]2CC[C@]2(C)C(n3cnc4ccccc43)=CC[C@@H]12 [Galeterone, galeterone]
- GI50 (MiaPaCa-2; Homo sapiens, MIA PaCa-2, MiaPaCa-2, single agent, MTT): 1.23 µM
- anti-proliferative potency compared with gemcitabine (MiaPaCa-2): almost as potent as gemcitabine
- induction of apoptosis (MiaPaCa-GR [1]): significantly induce apoptosis
- colony formation [2, 8]: significantly inhibited
- induction of apoptosis (S2-013 [3]): significantly induce apoptosis
- cell migration (Panc-1 cells): significant inhibition
- MMP9 secretion (MMP9; alone): decreases MMP9 secretion
- MMP9 secretion (MMP9; in combination with gemcitabine): decreases MMP9 secretion
- GI50 (S2-013 [4]): 0.49 µM
- GI50 (MiaPaCa-GR [5]): 7.08 µM
- GI50 (MiaPaCa-GTR): 2.19 µM

Structure (SMILES): C[C@]12CC[C@H](OCc3ccncc3)CC1=CCC1C2CC[C@]2(C)C(n3cnc4ccccc43)=CCC12 (stereo partly shown) [VNPP414]
- anti-proliferative potency compared with gemcitabine (MiaPaCa-2): almost as potent as gemcitabine
- cell migration (Panc-1 cells): significant inhibition

Structure (SMILES): C[C@]12CC[C@H](OC(=O)n3ccnc3)CC1=CCC1C2CC[C@]2(C)C(n3cnc4ccccc43)=CCC12 (stereo partly shown) [VNPT-55]
- anti-proliferative potency compared with gemcitabine (MiaPaCa-2): almost as potent as gemcitabine
- anti-proliferative (AP) potency relative to VN/124-1 [6]: 4 fold
- ARD potency relative to VN/124-1 (androgen receptor): 8 fold

Structure (SMILES): C#Cc1cccc(Nc2ncnc3cc(OCCOC)c(OCCOC)cc23)c1 [erlotinib]
- median overall survival benefit [7]: less than four weeks

Structure (SMILES): Nc1ccn([C@@H]2O[C@H](CO)[C@@H](O)C2(F)F)c(=O)n1 [Gemcitabine, reference compound]
- colony formation [2, 8]: inhibit colony formation
- cell migration (Panc-1 cells): not effective

Structure (SMILES): Nc1ncnc2n[nH]c(Nc3ccc(F)cc3)c12 [CGP, reference compound]
- colony formation ([2]; CGP at 2.5 μM): did not significantly affect colony formation
- cell migration (Panc-1 cells): not effective
